Reference: patent publication US5191079A, “Quinolinecarboxylic acid derivatives” (priority 1990, dated 1993)
≈ marks a conversion by molar mass, not a printed value.

Key:
[1] = test system: Staphylococcus aureus IID 803; experiment: Effect on treatment of general infectious disease (systemic infection in mice), Experiment 3; assay type: in vivo, Staphylococcus aureus; ddY male mice; details: for protective effects against infection: Experiment 3, in words; for ED50: Staphylococcus aureus, IID803, 168 h, oral, 1 h after i.p. infection, mice, survival after one week, average of several tests, read-out: 50% effective dose (ED50)
Procedure: (§1) Staphylococcus aureus IID 803
(§2) The test microorganism was subjected to standing culture in Brain heart infusion broth (manufactured by DIFCO) at 37° C. for 16 to 18 hours. The culture was then diluted with PBS (Dulbecco's phosphate buffered saline) to adjust the concentration of bacteria to 4×10^7 -8×10^7 CFU/ml. The mixture was mixed with an equivalent amount of 10% (w/v) Mucin (BACTO MUCIN BACTERIOLOGICAL, manufactured by Difco Co.) to prepare a bacterial suspension. The thus prepared bacterial suspension (0.5 ml each) was intraperitoneally inoculated to ddY male mice (5 weeks age, weighing 24-27 g, 5 mice in each group), to infect the animals, by which systemic infectious model was prepared.
The mice were daily observed for one week, and from the survival number of mice after one week, the 50% effective dose (ED50) was calculated by Weil method. This test was repeated several times and the average of ED50 was calculated.

[2] = test system: Streptococcus pneumoniae IID 554; experiment: MIC, Experiment 1; assay type: cell-based; details: IID554, S. pneumoniae IID 554, Gram +, agar with 5% defibrinated horse blood, read-out: Min. inhib. concentr. (MIC)
Outline: (§3)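 Compounds were dissolved in DMSO or sterile water at 5000 μg/ml, then diluted with sterile water to a 1000 μg/ml standard solution. Testing followed the Japan Society of Chemotherapy method. S. aureus and B. cereus were run on sensitivity test agar; pneumococci were run on horse-blood heart infusion agar.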

[3] = test system: Proteus mirabilis IFO 3849; experiment: MIC, Experiment 1; assay type: cell-based; details: IFO3849, P. mirabilis IFO 3849, Gram -, read-out: Min. inhib. concentr. (MIC)
Outline: (§4)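 Minimum inhibitory concentrations come from the Japan Society of Chemotherapy procedure. For streptococci, plates were heart infusion agar with 5% defibrinated horse blood after brain heart infusion broth preculture. Non-streptococcal strains were grown in sensitivity test broth and plated on sensitivity test agar.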

[4] = test system: Micrococcus luteus ATCC 9341; experiment: MIC, Experiment 1; assay type: cell-based; details: ATCC9341, M. luteus ATCC 9341, Gram +, read-out: Min. inhib. concentr. (MIC)
Outline: as §4

[5] = test system: Staphylococcus aureus Cowan I (IID 975); experiment: MIC, Experiment 1; assay type: cell-based; details: IID975, S. aureus Cowan I (IID 975), Gram +, read-out: Min. inhib. concentr. (MIC)
Outline: as §3

[6] = test system: Pseudomonas aeruginosa NCTC 10490; experiment: MIC, Experiment 1; assay type: cell-based; details: NCTC10490, P. aeruginosa NCTC 10490, Gram -, read-out: Min. inhib. concentr. (MIC)
Outline: as §4

[7] = test system: Bacillus subtilis ATCC 6633; experiment: MIC, Experiment 1; assay type: cell-based; details: ATCC6633, B. subtilis ATCC 6633, Gram +, read-out: Min. inhib. concentr. (MIC)
Outline: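 MIC was determined by the Japan Society of Chemotherapy agar dilution method, working from 1000 μg/ml standard solutions (DMSO or water stocks). S. pneumoniae was precultured in brain heart infusion broth and tested on heart infusion agar with 5% defibrinated horse blood. Other strains used sensitivity test broth and sensitivity test agar.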

[8] = test system: Staphylococcus aureus MS-353; experiment: MIC, Experiment 1; assay type: cell-based; details: MS353, S. aureus MS-353, Gram +, read-out: Min. inhib. concentr. (MIC)
Outline: as §3

[9] = Acute toxicity, Experiment 5; assay type: in vivo; details: oral, 2000 mg/kg, one week
Procedure: The compound (A) or (B) of the present invention was suspended in distilled water to prepare a suspension in concentration of 200 mg/ml and the compound (C) was suspended in distilled water to prepare a suspension in concentration of 100 mg/ml. The suspension was orally administered to ddY male mice (5 weeks age, weighing 19 to 24 g, 5 mice in each group), which had been fasted for 18 hours, at a rate of 2000 mg/kg body weight of the test compound.

bone marrow [10] = experiment: Micronucleus test, Experiment 7; assay type: in vivo, ICR male mice; details: oral 100 to 3000 mg/kg, mouse bone marrow, 24 hours
Procedure: 9,1-(Methylimino)methano-7-fluoro-8-(2-fluoromethylmorpholino)-5-oxo-5H-thiazolo[3,2-a]quinoline-4-carboxylic acid (compound of Example 3) [the compound (C) of the present invention] was suspended in sterilized distilled water. The suspension was orally administered to ICR male mice (8 weeks age, weighing 30 to 36 g, 3 mice in each group) at a rate of 3000, 1000, 300 or 100 mg/kg body weight of the test compound (C). After 24 hours, these mice were killed and the bone marrow was collected and observed the presence of micronuclei.

bone marrow [11] = experiment: Micronucleus test, Experiment 8; assay type: in vivo, ICR male mice; details: oral 300, 1000, 3000 mg/kg, mouse bone marrow, 24 or 48 hours
Procedure: The compound (B) or (E) of the present invention was suspended in 1% aqueous gum arabic. The suspension was orally administered to ICR male mice (7-8 weeks age, weighing 30 to 39 g, 5 mice in each group) at a rate of 3000, 1000 or 300 mg/kg body weight of the test compound (B) or (E). After 24 hours or 48 hours, these mice were killed and the bone marrow was collected and observed the presence of micronuclei.

[12] = test system: Staphylococcus aureus IID 803; experiment: Effect on treatment of general infectious disease (systemic infection in mice), Experiment 4; assay type: in vivo, Staphylococcus aureus; ddY male mice
Procedure: as §1
as §2, with “to 3×10^7” for “to 4×10^7 -8×10^7”, “weighing 22-29” for “weighing 24-27”, “g, 10” for “g, 5”, “prepared. One hour after the infection, a suspension of the test compound in 1% (w/v) aqueous gum arabic was orally adiministered to mice.” for “prepared.”
The mice were daily observed for one week, and from the survival number of mice after one week, the 50% effective dose (ED50) was calculated by Weil method.

SMILES	protective effects against infection [1]	ED50 [1] [mg/kg]	MIC [2] [µg/mL]	MIC [3] [µg/mL]	MIC [4] [µg/mL]	MIC [5] [µg/mL]	MIC [6] [µg/mL]	MIC [7] [µg/mL]	MIC [8] [µg/mL]	death of mice [9]	micronucleus inducing activity (bone marrow [10])	micronucleus inducing activity (bone marrow [11])	protective effects against infection ([12]; Experiment 4, in words)	ED50 ([12]; Staphylococcus aureus, IID803, 168 h, oral, 1 h after i.p. infection, mice, survival after one week, 3×10^7 CFU/ml, read-out: 50% effective dose (ED50)) [mg/kg]
CN1Cc2csc3c(C(=O)O)c(=O)c4cc(F)c(N5CCOC(CF)C5)c1c4n23 (centres unmarked) [Compound (C), 9,1-(Methylimino)methano-7-fluoro-8-(2-fluoromethylmorpholino)-5-oxo-5H-thiazolo[3,2-a]quinoline-4-carboxylic acid]	excellent protective effects against infection	1.9	0.05 (≈ 0.119 µM)	0.2 (≈ 0.475 µM)	0.1 (≈ 0.237 µM)	0.013 (≈ 0.0308 µM)	0.39 (≈ 0.925 µM)	≤ 0.006	0.013 (≈ 0.0308 µM)	no death of mice was observed	no nucleus inducing activity			
CN1Cc2csc3c(C(=O)O)c(=O)c4cc(F)c(N5CCOC(CO)C5)c1c4n23 (centres unmarked) [Compound (B), 9,1-(Methylimino)methano-7-fluoro-8-(2-hydroxymethylmorpholino)-5-oxo-5H-thiazolo[3,2-a]quinoline-4-carboxylic acid]	excellent protective effects against infection	5.1	0.05 (≈ 0.119 µM)	0.39 (≈ 0.93 µM)	0.1 (≈ 0.238 µM)	0.013 (≈ 0.031 µM)	0.39 (≈ 0.93 µM)	≤ 0.006	0.025 (≈ 0.0596 µM)	no death of mice was observed		no nucleus inducing activity		
COCC1CN(c2c(F)cc3c(=O)c(C(=O)O)c4scc5n4c3c2N(C)C5)CCO1 (centres unmarked) [Compound (E), 9,1-(Methylimino)methano-7-fluoro-8-(2-methoxymethylmorpholino)-5-oxo-5H-thiazolo[3,2-a]quinoline-4-carboxylic acid]			0.05 (≈ 0.115 µM)	0.78 (≈ 1.8 µM)	0.1 (≈ 0.231 µM)	≤ 0.006	1.56 (≈ 3.6 µM)	≤ 0.006	0.013 (≈ 0.03 µM)			no nucleus inducing activity	excellent protective effects against infection	1.7
